In general, IC50 refers to the point on the concentration scale where inhibition reaches its midpoint. As usually defined, the Ki is the equilibrium dissociation constant of an inhibitor or competing ligand from its target.

Each structure is given as a SMILES string. Bounds are passed on as bounds.

In experiment [1] the target is T1, P2X7 (Homo sapiens (Human), UniProt Q99572). The experiment is described as follows: P2X7 antagonism in human PBMCs (LPS + Bz-ATP induced IL-1β release, ELISA). Format: cell-based. To be noted: 0.5 mM Bz-ATP; for remaining activity at 10 µM: P2X7, 10 μM compound, human PBMC, read-out: PBMC 10 μM (% control); for PBMC 1 μM (% control): 1 μM compound. The protocol:
Human blood was collected using a blood donor program. PBMCs were isolated from blood using a Ficoll density gradient technique. Briefly, blood was laid on Ficoll solution and centrifuged at RT for 20 minutes at 2000 rpm. The buffy layer (between red blood cells and plasma) was carefully collected by aspiration, washed with PBS and centrifuged again at 1500 rpm for 15 minutes. The resulting cell pellet was washed and plated on 96 well-plates for experiments. For the Mouse/Human Whole Blood experiments, 150 μl of either mouse or human blood was platted on 96 well-plates. Lipopolysaccharide (LPS) (30 ng/ml) was added to each well and incubated for 1 hour. Test compounds were then added and incubated for 30 minutes. The P2X7 agonist, 2′(3′)-O-(4-benzoylbenzoyl) adenosine 5′-triphosphate (Bz-ATP) was then added at a final concentration of 0.5 mM (PBMC) or 1 mM (blood). Cells were incubated for an additional 1.5 hours. At that point, supernatant was collected and stored for IL-1β assay using manufacturer's protocol for enzyme-linked immunosorbent assay (ELISA). Data was expressed as percent control, where control is defined as the difference in IL-1β release in LPS+Bz-ATP samples and LPS only samples. Data was plotted as response (% control) versus concentration to generate IC50 values. […] In Table 2, when the data cell has been left blank, it is intended to mean that the compound was not tested in that assay.
On the technique in general: ELISA stands for enzyme-linked immunosorbent assay.

Experiment [2] addresses T2, rat P2X7 (Rattus norvegicus (Rat), UniProt Q64663). Description: Ca2+ flux (FLIPR) in 1321N1 cells expressing recombinant rat P2X7 channel. Format: cell-based. As to conditions: 250 μM BzATP. As for the experimental part:
(§1) (A) Ca^2+ Flux: 1321N1 cells expressing the recombinant human, rat or mouse P2X7 channel was cultured in HyQ DME/(HyClone/Dulbecco's Modified Eagle Medium) high glucose supplemented with 10% Fetal Bovine Serum (FBS) and appropriate selection marker. Cells were seeded at a density of 25000 cells/well (96-well clear bottom black walled plates) in 100 μl volume/well. On the day of the experiment, cell plates were washed with assay buffer, containing (in mM): 130 NaCl, 2 KCl, 1 CaCl2, 1 MgCl2, 10 HEPES, 5 glucose; pH 7.40 and 300 mOs. After the wash, cells were loaded with the Calcium-4 dye (Molecular Device) and incubated in the dark for 60 minutes. Test compounds were prepared at 250× the test concentration in neat DMSO. Intermediate 96-well compound plates were prepared by transferring 1.2 μL of the compound into 300 μL of assay buffer. A further 3× dilution occurred when transferring 50 μL/well of the compound plate to 100 μL/well in the cell plate. Cells were incubated with test compounds and dye for 30 minutes. […] The fluorescence change was measured 180 seconds after adding the agonist.
Background: Calcium assays in cells follow changes in intracellular calcium, usually with a dye or a luminescent sensor.

For experiment [3], the target named is T1, P2X7. The experiment is described as follows: Ca2+ flux (FLIPR) in 1321N1 cells expressing recombinant human P2X7 channel. As to conditions: 250 μM BzATP. Format: cell-based. The protocol:
as §1

Experiment [4] concerns the target T1, P2X7. The experiment is described as follows: P2X7 antagonism in human whole blood (LPS + Bz-ATP induced IL-1β release, ELISA). To be noted: 1 mM Bz-ATP. Format: cell-based. As for the experimental part: Human blood was collected using a blood donor program. PBMCs were isolated from blood using a Ficoll density gradient technique. Briefly, blood was laid on Ficoll solution and centrifuged at RT for 20 minutes at 2000 rpm. The buffy layer (between red blood cells and plasma) was carefully collected by aspiration, washed with PBS and centrifuged again at 1500 rpm for 15 minutes. The resulting cell pellet was washed and plated on 96 well-plates for experiments. […] Lipopolysaccharide (LPS) (30 ng/ml) was added to each well and incubated for 1 hour. Test compounds were then added and incubated for 30 minutes. The P2X7 agonist, 2′(3′)-O-(4-benzoylbenzoyl) adenosine 5′-triphosphate (Bz-ATP) was then added at a final concentration of 0.5 mM (PBMC) or 1 mM (blood). Cells were incubated for an additional 1.5 hours. At that point, supernatant was collected and stored for IL-1β assay using manufacturer's protocol for enzyme-linked immunosorbent assay (ELISA). Data was expressed as percent control, where control is defined as the difference in IL-1β release in LPS+Bz-ATP samples and LPS only samples. Data was plotted as response (% control) versus concentration to generate IC50 values.

Experiment [5] deals with T1, P2X7. Description: Radioligand binding, human P2X7-1321N1 cell membranes, tritiated A-804598 tracer. To be noted: 1 hour at 4° C. The protocol: (B) Radioligand binding: human or rat P2X7-1321N1 cells were collected and frozen @ −80° C. On the day of the experiment, cell membrane preparations were made according to standard published methods. […] The compound can be prepared as described in the literature. […] The assay was terminated by filtration (GF/B filters pre-soaked with 0.3% PEI) and washed with washing buffer (Tris-HCl 50 mM). The IC50 generated in the binding assay was corrected for tracer concentration and affinity of the tracer to derive at the affinity (Ki) of the test compounds.

In experiment [6] the target is T2, rat P2X7. The experiment is described as follows: Radioligand binding, rat P2X7-1321N1 cell membranes, tritiated A-804598 tracer. To be noted: 1 hour at 4° C. As for the experimental part: (B) Radioligand binding: human or rat P2X7-1321N1 cells were collected and frozen @ −80° C. On the day of the experiment, cell membrane preparations were made according to standard published methods. The total assay volume was 100 μl:10 μl compound (10×)+(b) 40 μl tracer (2.5×)+50 μl membrane (2×). The tracer used for the assay was tritiated A-804598. The compound can be prepared as described in the literature. (Donnelly-Roberts, D. Neuropharmacology 2009, 56 (1), 223-229.) Compounds, tracer and membranes were incubated for 1 hour @ 4° C. The assay was terminated by filtration (GF/B filters pre-soaked with 0.3% PEI) and washed with washing buffer (Tris-HCl 50 mM). The IC50 generated in the binding assay was corrected for tracer concentration and affinity of the tracer to derive at the affinity (Ki) of the test compounds.

T2 sequence (Q64663 whole entry): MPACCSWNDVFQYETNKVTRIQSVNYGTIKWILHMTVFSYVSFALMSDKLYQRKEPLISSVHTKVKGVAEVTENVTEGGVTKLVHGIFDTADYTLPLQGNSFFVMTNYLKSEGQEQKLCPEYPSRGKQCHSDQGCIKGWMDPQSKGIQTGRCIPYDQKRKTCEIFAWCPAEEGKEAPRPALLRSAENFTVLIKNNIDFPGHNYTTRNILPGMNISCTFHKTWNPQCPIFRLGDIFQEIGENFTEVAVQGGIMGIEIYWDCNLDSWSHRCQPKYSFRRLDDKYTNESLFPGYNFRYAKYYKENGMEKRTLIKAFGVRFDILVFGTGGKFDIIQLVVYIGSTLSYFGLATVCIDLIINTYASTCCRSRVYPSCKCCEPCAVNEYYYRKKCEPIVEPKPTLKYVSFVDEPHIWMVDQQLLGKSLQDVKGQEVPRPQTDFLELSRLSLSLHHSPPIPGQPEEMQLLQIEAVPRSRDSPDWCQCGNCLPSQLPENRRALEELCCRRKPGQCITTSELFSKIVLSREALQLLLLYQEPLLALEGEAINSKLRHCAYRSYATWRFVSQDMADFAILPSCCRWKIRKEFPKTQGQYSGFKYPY
T1 sequence (Q99572 whole entry): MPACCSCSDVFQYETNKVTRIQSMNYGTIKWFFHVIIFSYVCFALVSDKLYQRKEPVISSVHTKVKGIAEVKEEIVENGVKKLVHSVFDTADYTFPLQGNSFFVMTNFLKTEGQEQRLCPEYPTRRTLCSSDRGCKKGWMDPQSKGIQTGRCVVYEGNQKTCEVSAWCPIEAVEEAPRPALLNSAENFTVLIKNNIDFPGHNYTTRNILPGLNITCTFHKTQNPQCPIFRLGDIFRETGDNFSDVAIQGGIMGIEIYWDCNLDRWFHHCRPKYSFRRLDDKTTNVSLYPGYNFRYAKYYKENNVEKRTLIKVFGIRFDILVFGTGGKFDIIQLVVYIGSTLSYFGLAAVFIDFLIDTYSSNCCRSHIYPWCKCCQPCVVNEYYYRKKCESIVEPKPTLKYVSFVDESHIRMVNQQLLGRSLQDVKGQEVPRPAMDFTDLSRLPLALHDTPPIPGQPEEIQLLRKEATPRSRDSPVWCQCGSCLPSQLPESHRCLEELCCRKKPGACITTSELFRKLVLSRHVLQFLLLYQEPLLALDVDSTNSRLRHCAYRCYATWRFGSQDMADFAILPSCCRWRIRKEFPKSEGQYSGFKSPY

Consider `C[C@H]1Cn2c(nnc2C2CCCN(C(=O)OC(C)(C)C)C2)C(=O)N1Cc1cccc(C(F)(F)F)c1Cl` (stereo partly drawn) [Example 59, (6S)-tert-Butyl3-{7-[2-chloro-3-(trifluoromethyl)benzyl]-6-methyl-8-oxo-5,6,7,8-tetrahydro[1,2,4]triazolo[4,3-a]pyrazin-3-yl}piperidine-1-carboxylate], for which, on P2X7 [1], the remaining activity at 10 µM was determined as 10.9%. Further, at rat P2X7 [2], the 50% inhibitory concentration (IC50) turned out to be 1140 nM.

Take `O=C1c2nnc(-c3cnccn3)n2C[C@H](C2CC2)N1Cc1cccc(C(F)(F)F)c1Cl` (single isomer, unassigned) [Example 63]: the remaining activity at 10 µM at P2X7 [1] was 27.3%.

Take `O=C1c2nnc(-c3cnccn3)n2C[C@@H](C2CC2)N1Cc1cccc(C(F)(F)F)c1Cl` (single isomer, unassigned) [Example 62]: the remaining activity at 10 µM on P2X7 [1] is 14.1%.

On to `C[C@H]1Cn2c(nnc2-c2ccc(F)cn2)C(=O)N1Cc1cccc(C(F)(F)F)c1Cl` [Example 30, (6S)-7-[2-Chloro-3-(trifluoromethyl)benzyl]-3-(5-fluoropyridin-2-yl)-6-methyl-6,7-dihydro[1,2,4]triazolo[4,3-a]pyrazin-8(5H)-one], for which the remaining activity at 10 µM at P2X7 [1] is 3.3%. The IC50 at P2X7 [3] stood at 0.9 nM.

Consider `O=C1c2nnc(-c3ccccn3)n2CCN1Cc1cccc(Cl)c1Cl` [Example 8, 7-(2,3-Dichlorobenzyl)-3-pyridin-2-yl-6,7-dihydro[1,2,4]triazolo[4,3-a]pyrazin-8(5H)-one], for which the figures for the IC50 at P2X7 [4], on rat P2X7 [2] and on P2X7 [3] were 10000 nM, more than 10000 nM and 147 nM, respectively. This compound also came in with an inhibition constant Ki on P2X7 [5] of 20 nM.

Consider `O=C1c2nnc(-c3cnccn3)n2CCN1Cc1cccc(C(F)(F)F)c1Cl` [Example 3, 7-[2-Chloro-3-(trifluoromethyl)benzyl]-3-pyrazin-2-yl-6,7-dihydro[1,2,4]triazolo[4,3-a]pyrazin-8(5H)-one], for which, at P2X7 [1], the “PBMC 1 μM (% control)” value is listed as −0.6 % control. The inhibitory constant (Ki) amounted to 12.6 nM at rat P2X7 [6] and 6.3 nM on P2X7 [5]. Also, the half-inhibitory concentration (IC50) came out at 9310 nM on rat P2X7 [2] and 44.2 nM on P2X7 [3].

For the compound `O=C1c2nnc(-c3ccccn3)n2CCN1Cc1cccc(C(F)(F)F)c1Cl` [Example 9, 7-[2-Chloro-3-(trifluoromethyl)benzyl]-3-pyridin-2-yl-6,7-dihydro[1,2,4]triazolo[4,3-a]pyrazin-8(5H)-one], the IC50 is more than 10000 nM on P2X7 [4], more than 10000 nM on rat P2X7 [2] and 50.2 nM at P2X7 [3]. For the same compound, affinity on P2X7 [5] was put at a Ki of 10 nM.

As to `C[C@@H]1Cn2c(nnc2-c2cnccn2)C(=O)N1Cc1cccc(Cl)c1Cl` [Example 12, (6R)-7-(2,3-Dichlorobenzyl)-6-methyl-3-pyrazin-2-yl-6,7-dihydro[1,2,4]triazolo[4,3-a]pyrazin-8(5H)-one], the remaining activity at 10 µM at P2X7 [1] worked out at 20.6%.

As for `O=C1c2nnc(-c3cnccn3)n2CCN1Cc1cccc(Cl)c1Cl` [Example 2, 7-(2,3-Dichlorobenzyl)-3-pyrazin-2-yl-6,7-dihydro[1,2,4]triazolo[4,3-a]pyrazin-8(5H)-one], the “PBMC 1 μM (% control)” value on P2X7 [1] was found to be 50.6 % control.

These data come from US9040534B2, “[1,2,4]triazolo[4,3-a]pyrazines as P2X7 modulators” (Janssen Pharmaceutica NV, priority 2013, dated 2015).
